Test results published in patent US8809341B2, “2,4-pyrimidinediamine compounds and uses as anti-proliferative agents” (Rigel Pharmaceuticals, Inc., priority 2003, dated 2014).
Blank lines part the entries; values can stand above or below the compound they belong to.

Key:
A549 cells = test: in vitro antiproliferation assay, A549 (lung); assay type: cell-based
Summary of the method: (§1)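 Standard in vitro antiproliferation assays on tumour cell lines, including A549 and H1299 (both lung); IC50 values determined.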

H1299 cells = test: in vitro antiproliferation assay, H1299 (lung); assay type: cell-based
Summary of the method: as §1

[1] = IC50 class against A549 (lung) tumor cells
[2] = IC50 class against H1299 (lung) tumor cells
[3] = Table 5, in vitro antiproliferation, A549 (lung) cells
[4] = Table 5, in vitro antiproliferation, H1299 (lung) cells
[5] = A549 (lung) cells, antiproliferation
[6] = H1299 (lung) cells, antiproliferation
[7] = Table 7, in vitro antiproliferation, A549 (lung) cells
[8] = Table 7, in vitro antiproliferation, H1299 (lung) cells
[9] = Homo sapiens, A549 (lung) cells
[10] = Homo sapiens, NCI-H1299, H1299 (lung) cells
[11] = A549 (lung) cells, in vitro antiproliferation
[12] = H1299 (lung) cells, in vitro antiproliferation

IC50 (A549 cells; A549 (lung) cells): ≤ 20 µM
IC50 (H1299 cells; H1299 (lung) cells): ≤ 20 µM
SMILES: COc1ccc(Nc2nc(Nc3ccc4cnn(C(C)(C)CC5CC5)c4c3)ncc2F)cc1Cl [compound 1110]

IC50 (A549 cells; A549 (lung) cells): ≤ 20 µM
IC50 (H1299 cells; H1299 (lung) cells): ≤ 20 µM
SMILES: COc1cccc(Nc2ncc(F)c(Nc3ccc4c(c3)NC(=O)CO4)n2)c1C [compound 1062]

IC50 (A549 cells; A549 (lung) cells): ≤ 20 µM
IC50 (H1299 cells; H1299 (lung) cells): ≤ 20 µM
SMILES: CCCn1ncc2cc(Nc3ncc(F)c(Nc4ccc5c(c4)NC(=O)C(C)(C)O5)n3)ccc21 [compound 1076]

IC50 (A549 cells; [5]): > 20 µM
IC50 (H1299 cells; [6]): > 20 µM
SMILES: CNC(=O)COc1cccc(Nc2ncc(F)c(Nc3ccc(N4CCOCC4)cc3)n2)c1 [compound 992]

IC50 (A549 cells; [9]): > 20 µM
IC50 (H1299 cells; [10]): > 20 µM
SMILES: COc1cc(C)c(Nc2ncc(F)c(Nc3ccc4c(c3)NC(=O)[C@H](C)O4)n2)cc1Cl [compound 1140]

IC50 (A549 cells; [5]): > 20 µM
IC50 (H1299 cells; [6]): ≤ 20 µM
SMILES: CC(C)c1cccc(Nc2ncc(F)c(Nc3cccc(C(C)C)c3)n2)c1 [compound 968]

IC50 (A549 cells; [1]): > 20 µM
IC50 (H1299 cells; [2]): > 20 µM
SMILES: CNc1ncc(F)c(Nc2ccc3c(c2)OCCO3)n1 [compound 1044]

IC50 (A549 cells; [5]): ≤ 20 µM
IC50 (H1299 cells; [6]): ≤ 20 µM
SMILES: CCN(CC)CCNC(=O)c1ccc(Nc2ncc(F)c(Nc3ccc(Cl)c(OC)c3)n2)cc1 [compound 1035]

IC50 (A549 cells; [9]): ≤ 20 µM
IC50 (H1299 cells; [10]): ≤ 20 µM
SMILES: CC(Nc1ncc(F)c(Nc2ccc3c(c2)OCCO3)n1)c1ccccc1 (centres unmarked) [compound 1147]

IC50 (A549 cells; Homo sapiens, IC50 class against A549 (lung) tumor cells): ≤ 20 µM
IC50 (H1299 cells; Homo sapiens, NCI-H1299, IC50 class against H1299 (lung) tumor cells): ≤ 20 µM
SMILES: Cc1cc(C)cc(Nc2ncc(F)c(Nc3cccc(Nc4ncc[nH]4)c3)n2)c1 [compound 1052]

Second part, the compound before the results:

SMILES: CN1CCN(c2cccc(Nc3ncc(F)c(NC(C)(C)C)n3)c2)CC1 [compound 221]
IC50 (A549 cells; [1]): ≤ 20 µM
IC50 (H1299 cells; [2]): ≤ 20 µM

SMILES: CNC(=O)COc1c(C)cc(Nc2ncc(F)c(N(C)c3ccc4c(c3)OCCO4)n2)cc1C [compound 573]
IC50 (A549 cells; [3]): ≤ 20 µM
IC50 (H1299 cells; [4]): ≤ 20 µM

SMILES: Cc1cc(Nc2ncc(F)c(Nc3ccc4c(c3)OC(F)(F)C(F)(F)O4)n2)cc(C)c1Cl [compound 533]
IC50 (A549 cells; [3]): > 20 µM
IC50 (H1299 cells; [4]): ≤ 20 µM

SMILES: Fc1cnc(Nc2cccc(-c3ncco3)c2)nc1Nc1ccc2c(c1)OC(F)(F)C(F)(F)O2 [compound 571]
IC50 (A549 cells; [3]): ≤ 20 µM
IC50 (H1299 cells; [4]): ≤ 20 µM

SMILES: Cc1cc(C)cc(Nc2ncc(F)c(Nc3ccc4c(c3)OC(F)(F)C(F)(F)O4)n2)c1 [compound 537]
IC50 (A549 cells; [3]): ≤ 20 µM
IC50 (H1299 cells; [4]): ≤ 20 µM

SMILES: CCOC(=O)c1cc2cccc(Nc3ncc(F)c(NC4CCC4)n3)c2[nH]1 [compound 678]
IC50 (A549 cells; [7]): > 20 µM
IC50 (H1299 cells; [8]): > 20 µM

SMILES: CN1CCN(c2cccc(Nc3ncc(F)c(N(C)C4CCC4)n3)c2)CC1 [compound 129]
IC50 (A549 cells; [1]): ≤ 20 µM
IC50 (H1299 cells; [2]): ≤ 20 µM

SMILES: CCOC(=O)N1CCC(Nc2nc(Nc3ccc(N4CCN(C)CC4)nc3)ncc2F)CC1 [compound 190]
IC50 (A549 cells; [1]): ≤ 20 µM
IC50 (H1299 cells; [2]): ≤ 20 µM

SMILES: COc1ccc(Nc2nc(Nc3cccc(N4CCN(C(C)=O)CC4)c3)ncc2F)cc1OC [compound 862]
IC50 (A549 cells; [11]): ≤ 20 µM
IC50 (H1299 cells; [12]): ≤ 20 µM

SMILES: COc1ccc(Nc2ncc(F)c(Nc3ccc(OC)c(Cl)c3)n2)cc1Cl [compound 800]
IC50 (A549 cells; [11]): ≤ 20 µM
IC50 (H1299 cells; [12]): > 20 µM

SMILES: COc1c(C)cc(Nc2ncc(F)c(Nc3ccc4c(c3)NCC(C)(C)O4)n2)cc1Cl [compound 597]
IC50 (A549 cells; [1]): ≤ 20 µM
IC50 (H1299 cells; [2]): ≤ 20 µM

SMILES: CNC(=O)c1cc2cccc(Nc3ncc(F)c(Nc4ccc5c(c4)OC(F)(F)O5)n3)c2[nH]1 [compound 670]
IC50 (A549 cells; [7]): > 20 µM
IC50 (H1299 cells; [8]): > 20 µM

SMILES: COC(=O)c1cc2cc(Nc3ncc(F)c(N(C)c4ccc(OC)c(Cl)c4)n3)ccc2o1 [compound 671]
IC50 (A549 cells; [7]): > 20 µM
IC50 (H1299 cells; [8]): > 20 µM

SMILES: Cc1cc(C)cc(Nc2ncc(F)c(N(C)c3ccc4c(c3)OCCO4)n2)c1 [compound 547]
IC50 (A549 cells; [3]): ≤ 20 µM
IC50 (H1299 cells; [4]): ≤ 20 µM

SMILES: CCOC(=O)COc1cccc(Nc2nc(Nc3cc(OC)cc(OC)c3)ncc2F)c1 [compound 769]
IC50 (A549 cells; [11]): > 20 µM
IC50 (H1299 cells; [12]): > 20 µM

SMILES: COC(=O)c1cc(Nc2ncc(F)c(Nc3ccc(OC)c(OC)c3)n2)cc(-c2ncco2)c1 [compound 887]
IC50 (A549 cells; [5]): ≤ 20 µM
IC50 (H1299 cells; [6]): ≤ 20 µM

SMILES: COC(=O)CNC(=O)c1ccc(Nc2ncc(F)c(NC3CCCC3)n2)cc1 [compound 177]
IC50 (A549 cells; [1]): ≤ 20 µM
IC50 (H1299 cells; [2]): ≤ 20 µM

SMILES: CNC(=O)COc1cccc(Nc2ncc(F)c(N(C)c3ccc(OC)c(Cl)c3)n2)c1 [compound 906]
IC50 (A549 cells; [5]): ≤ 20 µM
IC50 (H1299 cells; [6]): ≤ 20 µM

SMILES: CNC(=O)COc1cc(O)cc(Nc2ncc(F)c(Nc3cccc(O)c3)n2)c1 [compound 797]
IC50 (A549 cells; [11]): ≤ 20 µM
IC50 (H1299 cells; [12]): > 20 µM

SMILES: CC(=O)N1CCN(c2ccc(Nc3ncc(F)c(Nc4ccc5c(c4)OC(F)(F)C(F)(F)O5)n3)cc2)CC1 [compound 553]
IC50 (A549 cells; [3]): ≤ 20 µM
IC50 (H1299 cells; [4]): ≤ 20 µM

SMILES: CNC(=O)c1cc2cccc(Nc3ncc(F)c(Nc4ccc(OC)c(OC)c4)n3)c2[nH]1 [compound 665]
IC50 (A549 cells; [7]): ≤ 20 µM
IC50 (H1299 cells; [8]): ≤ 20 µM
